From patent publication US20110086759A1, “CHEMICAL COMPOUNDS” (SYNGENTA CROP PROTECTION, INC., priority 2007, published 2011)

Key:
Assay type in all cases: in vivo
[1] = system: Setaria faberi (SETFA); assay: Pre-emergence biological efficacy, glasshouse pot test; conditions: 312 h
Outline: (§1)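 Standard soil, pots, sown then sprayed at day 1 with 1000 or 250 g/ha test compound. Glasshouse: 24/16 °C, 14 h photoperiod, 65% humidity, twice-daily watering. Evaluation day 13, 0–100 damage score.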

[2] = system: Amaranthus retoflexus (AMARE); assay: as above; conditions: Amaranthus retroflexus, 312 h
Outline: as §1

[3] = system: Ipomea hederaceae (IPOHE); assay: as above; conditions: Ipomoea hederacea, 312 h
Outline: as §1

[4] = system: Solanum nigrum (SOLNI); assay: as above; conditions: 312 h
Outline: as §1

[5] = system: Echinochloa crus-galli (ECHCG); assay: as above; conditions: 312 h
Outline: as §1

[6] = system: Alopecurus myosuroides (ALOMY); assay: as above; conditions: 312 h
Outline: as §1

[7] = system: Setaria faberi (SETFA); assay: Post-emergence biological efficacy, glasshouse pot test; conditions: 312 h
Outline: (§2)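 Scored 13 days after spraying on a 0 (no damage) to 100 (total damage) scale. Treatment was a post-emergence spray at 1000 or 250 g/ha, from acetone/water 50:50 plus 0.5% Tween 20, onto 8-day-old plants in soil pots. Growth at 24/16° C, 14 h photoperiod, 65% humidity, watered twice daily.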

[8] = system: Amaranthus retoflexus (AMARE); assay: as above; conditions: Amaranthus retroflexus, 312 h
Outline: as §2

[9] = system: Ipomea hederaceae (IPOHE); assay: as above; conditions: Ipomoea hederacea, 312 h
Outline: as §2

[10] = system: Solanum nigrum (SOLNI); assay: as above; conditions: 312 h
Outline: as §2

[11] = system: Echinochloa crus-galli (ECHCG); assay: as above; conditions: 312 h
Outline: as §2

[12] = system: Alopecurus myosuroides (ALOMY); assay: as above; conditions: 312 h
Outline: as §2

[13] = pre-emergence, 1,000 g/ha, evaluated after 13 days (100=total damage; 0=no damage), read-out: Percentage damage SETFA
[14] = pre-emergence, 1,000 g/ha, evaluated after 13 days (100=total damage; 0=no damage), read-out: Percentage damage AMARE
[15] = pre-emergence, 1,000 g/ha, evaluated after 13 days (100=total damage; 0=no damage), read-out: Percentage damage IPOHE
[16] = pre-emergence, 1,000 g/ha, evaluated after 13 days (100=total damage; 0=no damage), read-out: Percentage damage SOLNI
[17] = pre-emergence, 1,000 g/ha, evaluated after 13 days (100=total damage; 0=no damage), read-out: Percentage damage ECHCG
[18] = pre-emergence, 1,000 g/ha, evaluated after 13 days (100=total damage; 0=no damage), read-out: Percentage damage ALOMY
[19] = post-emergence, 1,000 g/ha, evaluated after 13 days (100=total damage; 0=no damage), read-out: Percentage damage caused to weed species, SETFA
[20] = post-emergence, 1,000 g/ha, evaluated after 13 days (100=total damage; 0=no damage), read-out: Percentage damage caused to weed species, AMARE
[21] = post-emergence, 1,000 g/ha, evaluated after 13 days (100=total damage; 0=no damage), read-out: Percentage damage caused to weed species, IPOHE
[22] = post-emergence, 1,000 g/ha, evaluated after 13 days (100=total damage; 0=no damage), read-out: Percentage damage caused to weed species, SOLNI
[23] = post-emergence, 1,000 g/ha, evaluated after 13 days (100=total damage; 0=no damage), read-out: Percentage damage caused to weed species, ECHCG
[24] = post-emergence, 1,000 g/ha, evaluated after 13 days (100=total damage; 0=no damage), read-out: Percentage damage caused to weed species, ALOMY
[25] = pre-emergence, rate 1,000 g/ha, evaluated after 13 days (100=total damage to plant; 0=no damage), read-out: Percentage damage caused to weed species, SETFA
[26] = pre-emergence, rate 1,000 g/ha, evaluated after 13 days (100=total damage to plant; 0=no damage), read-out: Percentage damage caused to weed species, AMARE
[27] = pre-emergence, rate 1,000 g/ha, evaluated after 13 days (100=total damage to plant; 0=no damage), read-out: Percentage damage caused to weed species, IPOHE
[28] = pre-emergence, rate 1,000 g/ha, evaluated after 13 days (100=total damage to plant; 0=no damage), read-out: Percentage damage caused to weed species, SOLNI
[29] = pre-emergence, rate 1,000 g/ha, evaluated after 13 days (100=total damage to plant; 0=no damage), read-out: Percentage damage caused to weed species, ECHCG
[30] = pre-emergence, rate 1,000 g/ha, evaluated after 13 days (100=total damage to plant; 0=no damage), read-out: Percentage damage caused to weed species, ALOMY
[31] = Rate 1,000 g/ha, post-emergence spray, evaluated after 13 days (100=total damage to plant; 0=no damage to plant), read-out: Percentage damage caused to weed species, post-emergence, SETFA
[32] = Rate 1,000 g/ha, post-emergence spray, evaluated after 13 days (100=total damage to plant; 0=no damage to plant), read-out: Percentage damage caused to weed species, post-emergence, AMARE
[33] = Rate 1,000 g/ha, post-emergence spray, evaluated after 13 days (100=total damage to plant; 0=no damage to plant), read-out: Percentage damage caused to weed species, post-emergence, IPOHE
[34] = Rate 1,000 g/ha, post-emergence spray, evaluated after 13 days (100=total damage to plant; 0=no damage to plant), read-out: Percentage damage caused to weed species, post-emergence, SOLNI
[35] = Rate 1,000 g/ha, post-emergence spray, evaluated after 13 days (100=total damage to plant; 0=no damage to plant), read-out: Percentage damage caused to weed species, post-emergence, ECHCG
[36] = Rate 1,000 g/ha, post-emergence spray, evaluated after 13 days (100=total damage to plant; 0=no damage to plant), read-out: Percentage damage caused to weed species, post-emergence, ALOMY

Row | SMILES | pest or weed control at 1000 g/ha [1, 13] | pest or weed control at 1000 g/ha [2, 14] | pest or weed control at 1000 g/ha [3, 15] | pest or weed control at 1000 g/ha [4, 16] | pest or weed control at 1000 g/ha [5, 17] | pest or weed control at 1000 g/ha [6, 18] | pest or weed control at 1000 g/ha [7, 19] | pest or weed control at 1000 g/ha [8, 20] | pest or weed control at 1000 g/ha [9, 21] | pest or weed control at 1000 g/ha [10, 22] | pest or weed control at 1000 g/ha [11, 23] | pest or weed control at 1000 g/ha [12, 24] | pest or weed control at 1000 g/ha [1, 25] | pest or weed control at 1000 g/ha [2, 26] | pest or weed control at 1000 g/ha [3, 27] | pest or weed control at 1000 g/ha [4, 28] | pest or weed control at 1000 g/ha [5, 29] | pest or weed control at 1000 g/ha [6, 30] | pest or weed control at 1000 g/ha [7, 31] | pest or weed control at 1000 g/ha [8, 32] | further results
1 | COC(=O)c1nc(C2CC2)nc(NCc2cccc(Br)c2)c1Cl [Compound 4-68, 4-(3-Bromophenyl-methylamino)5-chloro-2-cyclopropyl-6-methoxycarbonyl-pyrimidine] | 10% | 50% | 60% | 20% | 10% | 10% | 90% | 100% | 100% | 90% | 60% | 20% | – | – | – | – | – | – | – | – | –
2 | COC(=O)c1nc(-c2ccc(F)c(OC)c2)nc(NCc2ccco2)c1Cl [Compound 243-48, 5-Chloro-2-(4-fluoro-3-methoxyphenyl)-4-(furan-2-yl-methyl-amino)-6-methoxy-carbonylpyrimidine] | – | – | – | – | – | – | – | – | – | – | – | – | 40% | 60% | 0% | 10% | 0% | 10% | 60% | 100% | pest or weed control at 1000 g/ha [9, 33]: 10%; pest or weed control at 1000 g/ha [10, 34]: 60%; pest or weed control at 1000 g/ha [11, 35]: 40%; pest or weed control at 1000 g/ha [12, 36]: 10%
3 | COC(=O)c1nc(C2CC2)nc(NC2(COc3ccc(Cl)cc3)CC2)c1Cl [Compound 4-16, 5-Chloro-4-[1-(4-chlorophenoxy-methyl)cyclo-propylamino]-2-cyclopropyl-6-methoxycarbonyl-pyrimidine] | 0% | 30% | 10% | 10% | 0% | 0% | 60% | 100% | 100% | 90% | 40% | 20% | – | – | – | – | – | – | – | – | –
4 | COC(=O)c1nc(C2CC2)nc(NCCc2ccccn2)c1Cl [Compound 4-228, 5-Chloro-2-cyclopropyl-6-methoxycarbonyl-4-[2-(pyrid-2-yl)ethylamino]-pyrimidine] | 0% | 70% | 40% | 40% | 0% | 0% | 50% | 90% | 70% | 80% | 40% | 10% | – | – | – | – | – | – | – | – | –
5 | CCOc1ccc(CN(C)c2nc(C3CC3)nc(C(=O)OC)c2Cl)cc1OCC [Compound 5-114, 5-Chloro-2-cyclopropyl-4-[N-(3,4-diethoxy-phenylmethyl)-N-methyl-amino]-6-methoxycarbonyl-pyrimidine] | – | – | – | – | – | – | – | – | – | – | – | – | 20% | 70% | 40% | 20% | 0% | 0% | 40% | 100% | pest or weed control at 1000 g/ha [9, 33]: 70%; pest or weed control at 1000 g/ha [10, 34]: 80%; pest or weed control at 1000 g/ha [11, 35]: 20%; pest or weed control at 1000 g/ha [12, 36]: 10%
6 | COC(=O)c1nc(C2CC2)nc(NCc2ccc(C)o2)c1Cl [Compound 4-135, 5-Chloro-2-cyclopropyl-6-methoxy carbonyl-4-(5-methylfuran-2-ylmethylamino)-pyrimidine] | 90% | 100% | 100% | 100% | 100% | 60% | 90% | 100% | 100% | 100% | 90% | 60% | – | – | – | – | – | – | – | – | –
7 | COC(=O)c1nc(C2CC2)nc(NCc2ccc(F)cc2)c1Cl [Compound 4-66, 5-Chloro-2-cyclopropyl-4-(4-fluorophenyl-methylamino)-6-methoxy-carbonylpyrimidine] | 80% | 90% | 90% | 90% | 50% | 40% | 90% | 100% | 100% | 100% | 70% | 20% | – | – | – | – | – | – | – | – | –
8 | COC(=O)c1nc(C2CC2)nc(N(C)Cc2ccc([N+](=O)[O-])cc2)c1Cl [Compound 5-92, 5-Chloro-2-cyclopropyl-6-methoxycarbonyl-4-[N-methyl-N-(4-nitrophenylmethyl)-amino]-pyrimidine] | – | – | – | – | – | – | – | – | – | – | – | – | 10% | 90% | 70% | 60% | 10% | 20% | 60% | 100% | pest or weed control at 1000 g/ha [9, 33]: 100%; pest or weed control at 1000 g/ha [10, 34]: 80%; pest or weed control at 1000 g/ha [11, 35]: 40%; pest or weed control at 1000 g/ha [12, 36]: 50%
9 | COC(=O)c1nc(C2CC2)nc(NCC(O)c2ccc(O)cc2)c1Cl (stereo not drawn) [Compound 4-259, 5-Chloro-2-cyclopropyl-4-[2-hydroxy-2-(4-hydroxyphenyl)-ethylamino]-6-methoxycarbonyl-pyrimidine] | 30% | 100% | 100% | 90% | 30% | 10% | 80% | 100% | 70% | 80% | 30% | 20% | – | – | – | – | – | – | – | – | –
